Data: patent US20120005765A1, “ANIMAL MODEL FOR PARKINSON'S DISEASE” (Saint Louis University, priority 2010, published 2012)
“Also recorded” adds a separate entry of the source. Read-outs that look alike come from different tables or passages of the source.

Tests used:
ALDH1A1 = assay: Antisense inhibition of ALDH1A1 expression in rat substantia nigra, immunoblot; assay type: in vivo; details: 1 week or 2 weeks; for optical density of ALDH1A1 Western blot bands, ipsilateral vs contralateral: Unscan software
Protocol: Antisense inhibition of ALDH1A1 expression in rats.
The immunoreactive bands of the Western blot of FIG. 8 were analyzed by Unscan it soft ware (Silk Scientific) and their optical densities plotted in FIG. 9.

rats = assay: Rotational asymmetry after apomorphine; assay type: in vivo, rat; details: apomorphine 0.4 mg/kg, n=7
Protocol: (§1) Determination of DOPAL-induced Parkinson's disease-like behavior Injections of DOPAL or ALDH1A1 antisense oligo into rat SN. To determine if increased levels of DOPAL in SN produces a behavioral model of PD, 3 groups of rats were tested: unilateral SN injection of 4 μg DOPAL in 6 rats; unilateral SN injection of 0.56 μg antisense oligonucleotide (oligo) targeted to aldehyde dehydrogenase (ALDH1A1) mRNA, the DOPAL catabolic enzyme in 3 rats; 5 non-injected rats. After 5-7 weeks, rats were injected with apomorphine (0.4 mg/kg, subcutaneously) and rotational asymmetry determined in each group just prior to sacrifice. After the brains were fixed and sectioned, the SN, and forebrain were stained immunohistochemically for tyrosine hydroxylase immunoreactivity (THir). See Section 3.
Determination of rotational asymmetry. Rats first were injected subcutaneously with the dopamine agonist apomorphine (0.4 mg/kg) dissolved in 0.1 ascorbate saline solution. After waiting 5 min in their home cage, they were placed in a hemispheric rotation bowl 40 cm wide and 20 cm deep. Rotational behavior was then determined for 30 min and the number of ipsilateral and contralateral turns quantified by observation.
Rotational asymmetry was assessed to quantify the effect of unilateral depletions of striatal dopamine from disruptions of nigrostriatal circuitry. The rotational asymmetry behavior of rats (n=6) changed dramatically after injections with DOPAL (FIG. 5).
Behavioral asymmetry is considered the standard behavioral test for rodent models of Parkinson's disease. The column on the right is a summary of all the behaviors recorded in the rotational asymmetry test for all the rats ([…]).

DA SN neurons = assay: TH and NeuN immunohistochemistry after ALDH1A1 antisense injections into substantia nigra; assay type: in vivo, rat
Protocol: as §1
An antisense compound was used to decrease expression of ALDH1A1, which is responsible for breaking down DOPAL within the neuronal cell body and its effects on dopamine SN neurons and behavior were examined (FIGS. 6, 7). Three unilateral injections (total 800 nl; 700 pg/nl) of an antisense compound oligonucleotide (SEQ ID NO: 1), directed against the enzyme ALDH1A1, and comprising a phosphorothioate backbone, were made into the substantia nigra nucleus of the rat. The injections were placed in the pars compacta portion of the substantia nigra, the subnucleus where most of the dopaminergic neurons are found.

α-synuclein = α-synuclein (Homo sapiens, UniProt P37840); assay: DOPAL-triggered α-synuclein aggregation in test tube, Western blot; assay type: biochemical; details: AS 2 μM, 37° C., up to 4 h, DOPAL 1.5-1,500 μM
Protocol: Determination of DOPAL-triggered α-synuclein aggregation in vitro. Western blot of DOPAL-triggered AS aggregation in test tube experiments. DOPAL was dissolved in 1% benzyl alcohol, then diluted to a final concentration of 1.5-1,500 μM as described previously. AS (2 μM) was incubated at 37° C. in 20 μl of 100 mM tris-HCl buffer (pH 7.2) with or without DA, DOPAL, DOPAC, or homovanillic acid (HVA) for up to 4 h. The reaction was stopped by heating at 70° C. for 3 min in SDS buffer. The entire mixture was transferred to the appropriate gel (vide infra).
SDS-PAGE and immunoblotting. Ten micrograms of protein (estimated by Bio Rad protein reagent) was resolved by electrophoresis on 4-12% bis-tris gels run with MES SDS buffer, and 3-8% tris-acetate gels using tris-acetate running buffer. For immunoblotting, the protein was transferred to PVDF blotting membranes with […] pore size, blocked with 5% milk protein in tris buffered saline (TBS) containing 0.1% Tween 20, and incubated for 1 h with a AS 202 monoclonal antibody (1:2,500 dilution). Blots were washed five times with 5% milk protein in TBS and probed with horseradish peroxidase-conjugated anti-mouse secondary antibody (1:2,500). Blots were washed five times with TBS containing. 0.5% Tween 20 before detection with Super Signal (Pierce).
Western blot analysis was performed to analyze DOPAL-induced aggregation of α-synuclein (FIG. 1). […]

PC12 cells = assay: DOPAL toxicity in vitro, viable PC12 cell count (trypan blue)
Protocol: Determination of DOPAL toxicity in vitro Toxicity experiments were essentially as described previously. PC12 cultures were initially expanded in T-75 flasks with 20 ml Dulbecco's Modified Eagle's Medium supplemented with 4.5 g/l glucose, 4 mM L-glutamine, 5% fetal calf serum, 10% horse serum, 1000 units/l penicillin, and 100 mg/l streptomycin. Cells were transferred to six well culture plates with 2 ml media and grown to 1.5×10^5 cells/well, treated with 50 ng/ml nerve growth factor (NGF), and maintained in NGF-containing media for 7 d prior to experimentation. The medium was changed every 2-3 d. […] During the experiments, the medium was replaced once a day. Cells were detached with buffered saline containing EDT A, centrifuged at 200×g and resuspended in trypan blue for counting of viable cells. […] DOPAL and other compounds were added as described in the description of the figure and examples. Data was analyzed by ANOVA.
DOPAL, as well as other physiologically metabolites and adducts, were added to PC12 cells in culture at concentrations that were physiologically relevant.

ALDH = details: Lamensdorf et al. 2000; cited from earlier work
[1] = Experiment 1, 66 μM, None 299 ± 19

Q: What does the source list for “5″-AGCAGACGATCTCTCTCCATT-3″ (DNA, backbone and methylation of C not given here) [Antisense 2, 21-base antisense oligonucleotide complementary to residues 313 to 333 of rat ALDH1A1 mRNA]”?
A: ALDH1A1 protein, ipsilateral injected side vs contralateral side, Western blot (ALDH1A1): Loss of ALDH1A1; ALDH1A1 protein, ipsilateral injected side vs contralateral side, Western blot (ALDH1A1; listed as antisense 2): loss of ALDH1A1 protein; optical density of ALDH1A1 Western blot bands, ipsilateral vs contralateral (ALDH1A1): loss of ALDH1A1; rotational asymmetry after unilateral antisense injection into SN (rats): dramatic shifts in its rotational preference

Q: Which results are given for “5″-TGCAGGGGAAGACATTGCTGGT-3″ [Antisense 1]”?
A: ALDH1A1 protein, ipsilateral injected side vs contralateral side, Western blot (ALDH1A1): Loss of ALDH1A1; ALDH1A1 protein, ipsilateral injected side vs contralateral side, Western blot (ALDH1A1; listed as antisense 1): loss of ALDH1A1 protein; optical density of ALDH1A1 Western blot bands, ipsilateral vs contralateral (ALDH1A1): loss of ALDH1A1; rotational asymmetry after unilateral antisense injection into SN (rats): dramatic shifts in its rotational preference; neurons immediately adjacent to the injection site, Neun immunostaining (DA SN neurons; case R2504): have died; intensity of TH staining in the injected SN (DA SN neurons; three unilateral injections, total 800 nl, 700 pg/nl): slightly less; dopaminergic projections to rostral brain / ventral striatum, TH immunostaining (DA SN neurons; three unilateral injections, total 800 nl, 700 pg/nl, 5 or 7 weeks, listed as SEQ ID NO: 1): dramatically reduced; also recorded: absent/decreased

Q: Which results are given for `NCCc1ccc(O)c(O)c1` [DA, dopamine]?
A: aggregation of α-synuclein oligomers in vitro (α-synuclein): not; toxic in vitro at physiological levels (PC12 cells): not; PC 12 cells/well × 103 (PC12 cells; rat, 66 μM): 329 ± 21 cells/well × 103

Q: What does the source list for `O=C(O)Cc1ccc(O)c(O)c1` [DOPAC, 3,4-dihydroxyphenylacetic acid]?
A: toxic in vitro at physiological levels (PC12 cells): not; PC 12 cells/well × 103 (PC12 cells; rat, 66 μM): 334 ± 10 cells/well × 103

Q: Which “PC 12 cells/well × 103” value (PC12 cells; [1]) does the source give for `COc1cc(CC(=O)O)ccc1O` [HVA, homovanillic acid] here?
A: 322 ± 20 cells/well × 103

Q: And the “toxic in vitro at physiological levels” value (PC12 cells; PC12 cells in culture)?
A: not

Q: For `C=C(C)[C@H]1Cc2c(ccc3c2O[C@@H]2COc4cc(OC)c(OC)cc4[C@@H]2C3=O)O1` [Rotenone, rotenone], which “PC 12 cells/well × 103” value (PC12 cells; Experiment 2, 10 μM, None 143 ± 12) is on record?
A: 127 ± 9 cells/well × 103

Q: Which “PC 12 cells/well × 103” value (PC12 cells; [1]) does the source give for `Oc1ccc(CC2NCCc3cc(O)c(O)cc32)cc1O` (stereo not shown) [Tetrahydropapaveroline] here?
A: 346 ± 15 cells/well × 103

Q: And the “toxic in vitro at physiological levels” value (PC12 cells; PC12 cells in culture)?
A: not

Q: Which “inhibiting ALDH in PC-12 cells” value (ALDH) does the source give for `O=c1c(-c2ccc(O)cc2)coc2cc(O)ccc12` [daidzein] here?
A: effective
